Assay results published in PubChem BioAssay AID248 (DTP/NCI, 2004).
“And” between values parts separate entries of the source, which are not always exact repeats. Equal values may be shown once. Inconclusive results and toxic doses are left out. No stated cut-off is given here; in the data, active means T/C of 150% or more; inactive means T/C below 125%.

Test system: L1210 leukemia ip in BDF1 mice, survival T/C
Test: NCI In Vivo Anticancer Drug Screen. Data for tumor model L1210 Leukemia (intraperitoneal) in B6D2F1 (BDF1) mice
Details: higher = longer survival
Outline: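 Value reflects the ratio of survival in compound-treated mice to survival in vehicle-treated controls, with both groups carrying the same transplanted tumor.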

[1] = endpoint: mean survival time, dose: 75.0 mg/kg/injection, schedule: Q01DX001 (ip), vehicle: other
[2] = endpoint: mean survival time, dose: 150.0 mg/kg/injection, schedule: Q01DX001 (ip), vehicle: other
[3] = endpoint: mean survival time, dose: 300.0 mg/kg/injection, schedule: Q01DX001 (ip), vehicle: other
[4] = endpoint: mean survival time, dose: 100.0 mg/kg/injection, schedule: Q04DX003 (ip), vehicle: saline with Tween-80
[5] = endpoint: mean survival time, dose: 100.0 mg/kg/injection, schedule: Q01DX001 (ip), vehicle: saline
[6] = endpoint: mean survival time, dose: 100.0 mg/kg/injection, schedule: Q01DX009 (ip), vehicle: saline with Tween-80
[7] = endpoint: mean survival time, dose: 200.0 mg/kg/injection, schedule: Q01DX001 (ip), vehicle: saline
[8] = endpoint: mean survival time, dose: 200.0 mg/kg/injection, schedule: Q01DX009 (ip), vehicle: saline with Tween-80
[9] = endpoint: mean survival time, dose: 400.0 mg/kg/injection, schedule: Q01DX001 (ip), vehicle: saline
[10] = endpoint: mean survival time, dose: 100.0 mg/kg/injection, schedule: Q01DX001 (ip), vehicle: other
[11] = endpoint: mean survival time, dose: 200.0 mg/kg/injection, schedule: Q01DX001 (ip), vehicle: other
[12] = endpoint: mean survival time, dose: 400.0 mg/kg/injection, schedule: Q01DX001 (ip), vehicle: other
[13] = endpoint: mean survival time, dose: 100.0 mg/kg/injection, schedule: Q04DX003 (ip), vehicle: Klucel (hydroxypropylcellulose) (HPC)
[14] = endpoint: mean survival time, dose: 200.0 mg/kg/injection, schedule: Q04DX003 (ip), vehicle: Klucel (hydroxypropylcellulose) (HPC)
[15] = endpoint: mean survival time, dose: 400.0 mg/kg/injection, schedule: Q04DX003 (ip), vehicle: Klucel (hydroxypropylcellulose) (HPC)

Measured: T/C

CCOC(=O)/C(C#N)=C1\CCC=C(C)C1
inactive: [1] 97 % of control | [2] 102 % of control | [3] 98 % of control

NC(=S)N/N=C/c1cc(Br)cc(Br)c1O
inactive: endpoint: mean survival time, dose: 100.0 mg/kg/injection, schedule: Q04DX002 (ip), vehicle: Klucel (hydroxypropylcellulose) (HPC) 95 % of control | endpoint: mean survival time, dose: 200.0 mg/kg/injection, schedule: Q04DX002 (ip), vehicle: Klucel (hydroxypropylcellulose) (HPC) 91 % of control | endpoint: mean survival time, dose: 400.0 mg/kg/injection, schedule: Q04DX002 (ip), vehicle: Klucel (hydroxypropylcellulose) (HPC) 100 % of control

CN1CCC(c2ccccc2)(c2ccccc2)OC1
inactive: [4] 94 % of control

OC1C=CC2C3C=CC(C3)C12 (stereo unspecified)
inactive: endpoint: mean survival time, dose: 50.0 mg/kg/injection, schedule: Q01DX009 (ip), vehicle: saline 102 % of control | endpoint: mean survival time, dose: 50.0 mg/kg/injection, schedule: Q04DX003 (ip), vehicle: saline 102 % of control | endpoint: mean survival time, dose: 100.0 mg/kg/injection, schedule: Q01DX009 (ip), vehicle: saline 104 % of control | endpoint: mean survival time, dose: 100.0 mg/kg/injection, schedule: Q04DX003 (ip), vehicle: saline 103 % of control | endpoint: mean survival time, dose: 200.0 mg/kg/injection, schedule: Q01DX009 (ip), vehicle: saline 95 % of control | endpoint: mean survival time, dose: 200.0 mg/kg/injection, schedule: Q04DX003 (ip), vehicle: saline 94 % of control | endpoint: mean survival time, dose: 400.0 mg/kg/injection, schedule: Q01DX009 (ip), vehicle: saline 95 % of control | endpoint: mean survival time, dose: 400.0 mg/kg/injection, schedule: Q04DX003 (ip), vehicle: saline 91 % of control

C#CCn1c2ccccc2c2ccccc21
inactive: [5] 97 % of control | [6] 95 % of control | [7] 103 % of control | [8] 101 % of control | [9] 103 % of control | endpoint: mean survival time, dose: 400.0 mg/kg/injection, schedule: Q01DX009 (ip), vehicle: saline with Tween-80 96 % of control

Brc1ccc(N=Cc2ccc3c(c2)OCO3)cc1
inactive: endpoint: mean survival time, dose: 100.0 mg/kg/injection, schedule: Q04DX003 (ip), vehicle: gum acacia 96 % of control | endpoint: mean survival time, dose: 200.0 mg/kg/injection, schedule: Q04DX003 (ip), vehicle: gum acacia 95 % of control | endpoint: mean survival time, dose: 400.0 mg/kg/injection, schedule: Q04DX003 (ip), vehicle: gum acacia 90 % of control

CCCCCCCCc1ccc(O)c(Cl)c1
inactive: [6] 95 % of control | [8] 96 % of control

O/N=C/c1cnccn1
inactive: [5] 105 % of control | [7] 105 % of control

NS(=O)(=O)c1cc[n+]([O-])c2ccccc12
inactive: endpoint: mean survival time, dose: 100.0 mg/kg/injection, schedule: Q01DX001 (ip), vehicle: saline with Tween-80 97 % of control | [6] 96 % of control | endpoint: mean survival time, dose: 200.0 mg/kg/injection, schedule: Q01DX001 (ip), vehicle: saline with Tween-80 97 % of control | [8] 94 % of control | endpoint: mean survival time, dose: 400.0 mg/kg/injection, schedule: Q01DX001 (ip), vehicle: saline with Tween-80 96 % of control

Cc1ccc(C2C(C(=O)c3ccccc3)N2Cc2ccccc2)cc1 (stereo unspecified)
inactive: endpoint: mean survival time, dose: 100.0 mg/kg/injection, schedule: Q01DX001 (ip), vehicle: Klucel (hydroxypropylcellulose) (HPC) 98 % of control | endpoint: mean survival time, dose: 200.0 mg/kg/injection, schedule: Q01DX001 (ip), vehicle: Klucel (hydroxypropylcellulose) (HPC) 95 % of control

CCC1(c2ccccc2)C(=O)NC(=O)NC1=O
inactive: endpoint: mean survival time, dose: 75.0 mg/kg/injection, schedule: Q01DX001 (ip), vehicle: saline 105 % of control | endpoint: mean survival time, dose: 150.0 mg/kg/injection, schedule: Q01DX001 (ip), vehicle: saline 100 % of control | endpoint: median survival time, dose: 25.0 mg/kg/injection, schedule: Q12HX034 (sc), vehicle: saline 106 % of control | endpoint: median survival time, dose: 50.0 mg/kg/injection, schedule: Q12HX034 (sc), vehicle: saline 100 % of control

c1ccc(CNc2nccs2)cc1
inactive: endpoint: mean survival time, dose: 75.0 mg/kg/injection, schedule: Q01DX001 (ip), vehicle: carboxymethylcellulose (CMC) 96 % of control | endpoint: mean survival time, dose: 150.0 mg/kg/injection, schedule: Q01DX001 (ip), vehicle: carboxymethylcellulose (CMC) 91 % of control | endpoint: mean survival time, dose: 300.0 mg/kg/injection, schedule: Q01DX001 (ip), vehicle: carboxymethylcellulose (CMC) 95 % of control

Nc1c(-c2ccccc2)nnn1-c1cccc(Cl)c1
inactive: endpoint: mean survival time, dose: 25.0 mg/kg/injection, schedule: Q04DX002 (ip), vehicle: gum acacia 95 % of control | endpoint: mean survival time, dose: 50.0 mg/kg/injection, schedule: Q04DX002 (ip), vehicle: gum acacia 95 % of control | endpoint: mean survival time, dose: 100.0 mg/kg/injection, schedule: Q04DX002 (ip), vehicle: gum acacia 96 % of control and 98 % of control

CCOC(=O)/C=C(\COC)c1ccccc1
inactive: [5] 104 % of control | [7] 104 % of control | [9] 104 % of control

CCCCSc1ncnc2nc[nH]c12
inactive: [1] 103 % of control | [2] 95 % of control | [3] 106 % of control

CCC(C)CC=O (stereo unspecified)
inactive: endpoint: mean survival time, dose: 50.0 mg/kg/injection, schedule: Q01DX001 (ip), vehicle: carboxymethylcellulose (CMC) 95 % of control | endpoint: mean survival time, dose: 100.0 mg/kg/injection, schedule: Q01DX001 (ip), vehicle: carboxymethylcellulose (CMC) 98 % of control | endpoint: mean survival time, dose: 200.0 mg/kg/injection, schedule: Q01DX001 (ip), vehicle: carboxymethylcellulose (CMC) 93 % of control | endpoint: mean survival time, dose: 400.0 mg/kg/injection, schedule: Q01DX001 (ip), vehicle: carboxymethylcellulose (CMC) 101 % of control

CC(=O)Oc1cc(C)c2c(c1C)C1OC(=O)C(C)C1CC2 (stereo unspecified)
inactive: [10] 98 % of control | [11] 98 % of control | [12] 97 % of control

O=C(Nc1ccc(F)c(Cl)c1)N(CCO)C1CCCCC1
inactive: [13] 101 % of control | [14] 100 % of control | [15] 92 % of control

CS(=O)(=O)N(c1ccccc1)c1ccccc1[N+](=O)[O-]
inactive: [10] 117 % of control | [11] 96 % of control | [12] 111 % of control

O=C/C(=C\C=C\c1ccc([N+](=O)[O-])cc1)c1ccccc1
inactive: endpoint: mean survival time, dose: 75.0 mg/kg/injection, schedule: Q01DX001 (ip), vehicle: Klucel (hydroxypropylcellulose) (HPC) 86 % of control | endpoint: mean survival time, dose: 150.0 mg/kg/injection, schedule: Q01DX001 (ip), vehicle: Klucel (hydroxypropylcellulose) (HPC) 88 % of control | endpoint: mean survival time, dose: 300.0 mg/kg/injection, schedule: Q01DX001 (ip), vehicle: Klucel (hydroxypropylcellulose) (HPC) 89 % of control

Nc1nc(N)c(N)c(Nc2ccc(O)cc2)n1
inactive: endpoint: mean survival time, dose: 100.0 mg/kg/injection, schedule: Q01DX Z (ip), vehicle: saline 102 % of control

C[N+](C)(Cc1ccccc1)C1c2ccccc2-c2ccc(Cl)cc21 (stereo unspecified)
inactive: endpoint: mean survival time, dose: 6.25 mg/kg/injection, schedule: Q04DX002 (ip), vehicle: saline with Tween-80 91 % of control | endpoint: mean survival time, dose: 12.5 mg/kg/injection, schedule: Q04DX002 (ip), vehicle: saline with Tween-80 94 % of control | endpoint: mean survival time, dose: 25.0 mg/kg/injection, schedule: Q04DX002 (ip), vehicle: saline with Tween-80 88 % of control

O=C1CCN(C2CC(O)C(CO)C2)C(=O)N1 (stereo unspecified)
inactive: [5] 101 % of control | [7] 95 % of control | [9] 101 % of control

CN(C)CCN1C(=O)c2ccccc2C(C(C)(C)[N+](=O)[O-])c2ccccc21 (stereo unspecified)
inactive: [13] 102 % of control | [14] 98 % of control | [15] 93 % of control

CNC(=O)Nc1ccccc1
inactive: [4] 94 % of control | endpoint: mean survival time, dose: 200.0 mg/kg/injection, schedule: Q04DX003 (ip), vehicle: saline with Tween-80 90 % of control | endpoint: mean survival time, dose: 400.0 mg/kg/injection, schedule: Q04DX003 (ip), vehicle: saline with Tween-80 94 % of control
